In US20090298857A1, “Treatment of Neurodegenerative Diseases Through Inhibition of HSP90” (SLOAN-KETTERING INSTITUTE FOR CANCER RESEARCH, priority 2006, published 2009):

Tested on: human TauP301L in JNPL3 mouse brain
Experiment: One dose PU-DZ8 in JNPL3 mice, soluble (S1) and insoluble (P3) Tau
Format: in vivo
Conditions: 75 mg/kg i.p.
Procedure: To investigate whether the human TauP301L present in the JNPL3 line of mice is a sensitive target for Hsp90 inhibition, animals were treated with the brain-barrier permeable Hsp90 inhibitor PU-DZ8. This agent is a higher-potency water soluble derivative of PU24FC1 (EC50JNPL3 brain Hsp90=70 nM). One dose of PU-DZ8 (75 mg/kg) was administered intraperitoneally (i.p.) to female mice of 2.5-4 months in age (n=32) and animals were sacrificed in the interval of 0 to 36 h. Both aggregate-free Tau (S1) and insoluble Tau (P3) fractions were prepared from the subcortical and cortical regions of these mice. Human Tau levels were assessed by immunobloting with a human specific anti-Tau antibody (HT-7). […] We next examined in a 4- to 6-month old mouse group (n=15) whether the stability of mTau as present in tau aggregates (P3 fraction) was additionally regulated by Hsp90.
For experiments designed to test the kinetics of mTau and p35 modulation by Hsp90 inhibitors, animals were administered intraperitoneally (i.p.) 75 mg/kg PU-DZ8 in PBS (6% DMSO). Mice were sacrificed by CO2 euthanasia at the indicated times following PU-DZ8 administration. Hemibrains were separated into cortico-limbic (cortex, amygdale and hippocampus) and subcortical (basal ganglia, diencephalon, brain stem and cerebellum) regions, quickly frozen on dry ice and stored at −80° C. and processed. In summary, each brain piece was weighed and homogenized in three volumes of Tris-buffered saline (TBS) containing protease and phosphatase inhibitors (25 mM Tris-HCl, pH 7.4, 150 mM NaCl, 1 mM EDTA, 1 mM EGTA, 5 mM sodium pyrophosphate, 30 mM p-glycerophosphate, 30 mM sodium fluoride. 1 mM phenylmethylsulfonyl fluoride (PMSF)). The homogenates were centrifuged at 27,000 g for 15 min at 4° C. Supernatants were collected as S1 fractions, and the pellets (P1) were re-homogenized in three volumes of salt/sucrose buffer (0.8 M NaCl, 10% sucrose, 10 mM Tris/HCl, pH 7.4, 1 mM EGTA, 1 mM PMSF) and centrifuged as above. The resulting pellets were discarded and the supernatants were incubated with sarkosyl (Sigma, St Louis, Mo., USA; 1% final concentration) for 1 h at 37° C. The sarkosyl mixtures were then centrifuged at 150,000 g for 30 min at 4° C. The supernatants (S2 fraction) were collected, and the pellets (P3) were resuspended in 50 μL 2% SDS in TBS and stored at −80° C. for western blotting. Proteins were analyzed by Western blot.

## CC(C)NCCCn1c(Cc2cc3c(cc2I)OCO3)nc2c(N)nc(F)nc21 [PU-DZ8]
  cdk5 expression: No significant changes
  expressions of Akt and Raf-1: not altered
4- to 6-month old mice
  insoluble and hyperphosphorylated Tau (P3 fraction): significant reduction
4 h (P=0.0031), maintained up to 36 h
  soluble precursor pool mTau (S1), subcortical brain regions: significant decrease
